Assay results reported in patent US4026896A, “Aromatic amidocarboxylic acids and pharmaceutical compositions thereof” (Kissei Yakuhin Kogyo Kabushiki Kaisha (Kissei …, priority 1974, dated 1977).

Test system: homologous passive cutaneous anaphylaxis (PCA)
Test: Homologous passive cutaneous anaphylaxis (PCA) in rats, test compounds given orally
Format: in vivo, Wistar male rats
Details: po; rat, 200 mg/kg p.o., 2 hours prior to injection of antigen and Evans blue; read-out: INHIBITION (%) of PCA (amount of dye leaked vs control group)
Description: "Homologous passive cutaneous anaphylaxis (PCA) in rats."
Wistar male rats weighing from 120 to 150 g were used in the present experiment. Reaginic antibody was obtained from rats immunized with 2,4-dinitrophenyl-coupled ascaris extract (DNP-As) mixed with Bordetella pertussis. Normal rats were sensitized passively with an intradermal injection of the diluted antiserum. After 48 hours of the sensitization, the mixture of antigen (DNP-As) and Evans blue was injected intravenously. The animals were sacrificed by a blow on the head 30 minutes after challenging with antigen. The area blued as a result of PCA was excised and the amount of dye leaked was measured photometrically after the extraction of same with acetone containing sodium carbonate.
The test compounds were suspended in 0.5% aqueous solution of sodium carboxymethylcellulose (CMC) and administered 200 mg/kg p.o. 2 hours prior to the injection of a mixture of antigen and Evans blue. […] The efficacy of the test compounds to inhibit the PCA was compared with the value (%) calculated using the following formula: [formula] A: Amount of dye leaked in the control group B: Amount of dye leaked in the group treated with test compound

In order of falling inhibition in vivo at 200 mg/kg:
1. COc1ccc(C=CC(=O)Nc2ccccc2CC(=O)O)cc1OC [2-(3',4'-dimethoxycinnamoylamino)phenylacetic acid]  63.9%
2. O=C(O)Cc1ccccc1NC(=O)C=Cc1ccc(Cl)cc1 [2-(4'-chlorocinnamoylamino)phenylacetic acid]  53.3%
3. COc1ccc(C=CC(=O)Nc2cccc(CCC(=O)O)c2)cc1OC [β-[3-(3',4'-dimethoxycinnamoylamino)]phenylpropionic]  47.2%
4. COc1ccc(C=CC(=O)Nc2ccccc2OCC(=O)O)cc1OC [2-(3',4'-dimethoxycinnamoylamino)phenoxyacetic acid]  42.6%
5. O=C(O)Cc1cccc(NC(=O)C=Cc2ccccc2)c1 [3-(cinnamoylamino)phenylacetic acid]  39.8%
6. OCC(O)COc1ccc(Cl)cc1 (stereo not shown) [chlorphenesin, reference compound]  39.7%
7. COc1ccc(C(C)=CC(=O)Nc2ccccc2CC(=O)O)cc1OC [2-(3',4'-dimethoxy-β-methylcinnamoylamino)phenylacetic]  37.3%
8. O=C(O)Cc1ccc(NC(=O)C=Cc2ccc(O)cc2)cc1 [4-(4'-hydroxycinnamoylamino)phenylacetic acid]  34.3%
9. CCCOc1ccc(C=CC(=O)Nc2ccccc2OCC(=O)O)cc1OC [2-(3'-methoxy,4'-propoxycinnamoylamino)phenoxyacetic acid]  32.1%
10. COc1ccc(C=CC(=O)Nc2ccccc2CCC(=O)O)cc1OC [β-[2-(3',4'-dimethoxycinnamoylamino)]phenylpropionic]  27%
11. COc1ccc(CCC(=O)Nc2ccccc2OCC(=O)O)cc1OC [2-(3',4'-dimethoxyhydrocinnamoylamino)phenoxyacetic acid]  25.9%
12. O=C(C=Cc1ccccc1)Nc1ccccc1C(=O)O [N-cinnamoyl-anthranilic acid, reference compound]  18.1%
13. O=C(C=Cc1ccccc1)Nc1cccc(C(=O)O)c1 [3-(cinnamoylamino)benzoic acid, reference compound]  10.8%
14. O=C(C=Cc1ccccc1)Nc1ccc(C(=O)O)cc1 [4-(cinnamoylamino)benzoic acid, reference compound]  7.5%

Same assay, conditions: rat, 200 mg/kg p.o., 2 hours prior to injection of antigen and Evans blue

In order of falling “INHIBITION (%) of PCA (amount of dye leaked vs control group)” value:
1. COc1ccc(C=CC(=O)Nc2ccc(CC(=O)O)cc2)cc1 [4-(4'-methoxy-β-cinnamoylamino)phenylacetic acid]  85.3%
2. Cc1ccc(C=CC(=O)Nc2ccc(OCC(=O)O)cc2)cc1 [β-[4-(4'-methylcinnamoylamino)]phenoxyacetic acid]  75.9%

Test system: experimental anaphylaxis / antiallergic effect
Test: not given
Details: oral, mammalia; known reference compounds; cited from earlier work

For O=C(O)c1cc(=O)c2c(OCC(O)COc3cccc4oc(C(=O)O)cc(=O)c34)cccc2o1 [disodium chromoglycate], the “antiallergic effect when administered orally” value is given as “not at all expected when this compound is administered orally”.
In the case of “cinnamoylaminobenzoic acid [unsubstituted cinnamoylaminobenzoic acid]”, the “antiallergic effect when administered orally” value is listed as “only a slightly weak antiallergic effect”.

Test system: release of chemical mediators from cells
Test: not given
Details: caused by an antigen-antibody reaction; cited from earlier work

For O=C(O)c1cc(=O)c2c(OCC(O)COc3cccc4oc(C(=O)O)cc(=O)c34)cccc2o1 [disodium chromoglycate], the “inhibiting release of chemical mediators from cells” value is listed as “effective for inhibiting release of chemical mediators from cells”.
